Read-outs that look alike come from different tables or passages of the source.
How the values were obtained:
Type in all cases: in vivo
[1] = system: Green Peach Aphid (GPA) (Myzus persicae); experiment: Bioassay on green peach aphid (GPA), foliar spray on cabbage seedlings; conditions: read-out: % Mortality GPA 200 ppm
Protocol: Certain molecules disclosed in this document were tested against GPA using procedures described in the following example. In the reporting of the results, the “GPA Rating Table” was used (See Table Section).
Cabbage seedlings grown in 3-inch pots, with 2-3 small (3-5 cm) true leaves, were used as test substrate. The seedlings were infested with 20-50 GPA (wingless adult and nymph stages) one day prior to chemical application. Four pots with individual seedlings were used for each treatment. Test compounds (2 mg) were dissolved in 2 mL of acetone/methanol (1:1) solvent, forming stock solutions of 1000 ppm test compound. […] A hand-held aspirator-type sprayer was used for spraying a solution to both sides of […] leaves until runoff. Reference plants (solvent check) were sprayed with the diluent only containing 20% by volume of acetone/methanol (1:1) solvent. Treated plants were held in a holding room for three days at approximately 25° C. and ambient relative humidity (RH) prior to grading. Evaluation was conducted by counting the number of live aphids per plant under a microscope. […] Corrected % Control=100*(X−Y)/X • where • X=No. of live aphids on solvent check plants and • Y=No. of live aphids on treated plants
The results are indicated in the table entitled “Table 5: Biological Results” (See Table Section).

[2] = system: Beet Armyworm (BAW) (Spodoptera exigua); experiment: Bioassay on beet armyworm (BAW), 128-well diet tray assay; conditions: Spodoptera exigua, read-out: % Mortality BAW 50 μg/cm^2
[3] = system: Corn Earworm (CEW) (Helicoverpa zea); experiment: Bioassay on corn earworm (CEW), 128-well diet tray assay; conditions: Helicoverpa zea, read-out: % Mortality CEW 50 μg/cm^2
Method in brief: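 Larvae in a 128-well diet tray were held at 25° C under 14:10 light-dark for five to seven days. Percent mortality was scored per well and averaged over eight wells, then reported on a rating scale.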

Row | Structure (SMILES) | mortality at 200 ppm ([1]; green peach aphid, 200 ppm) | mortality at 50 µg/cm2 ([2]; beet armyworm, 50 μg/cm^2) | mortality at 50 µg/cm2 ([3]; corn earworm, 50 μg/cm^2) | mortality at 200 ppm [1] | mortality at 50 µg/cm2 [2] | mortality at 50 µg/cm2 [3]
1 | COc1ccc(C(C)/N=C(/N/N=C/c2ccc(-c3ncn(-c4ccc(OC(F)(F)F)cc4)n3)cc2)SCC(=O)O)cc1 (stereo not drawn) [Compound 52C] | 0 to 80% | 0 to 50% | 0% | – | – | –
2 | Cc1cccc(C)c1/N=C(/N/N=C/c1ccc(-c2ncn(-c3ccc(OC(F)(F)F)cc3)n2)cc1)SCc1ccc(F)cc1F [Compound 7C] | 0% | 0% | 50 to 100% | – | – | –
3 | Cc1cccc(C)c1/N=C(/N/N=C/c1ccc(-c2ncn(-c3ccc(OC(F)(F)F)cc3)n2)cc1)SCc1c(F)cccc1F [Compound 5C] | 0 to 80% | 50 to 100% | 50 to 100% | – | – | –
4 | COc1cccc(N2CCS/C2=N\N=C\c2ccc(-c3ncn(-c4ccc(OC(F)(F)F)cc4)n3)cc2)c1 [Compound 147C] | 0 to 80% | 50 to 100% | 50 to 100% | – | – | –
5 | O=C1CS/C(=N\N=C\c2ccc(-c3ncn(-c4ccc(OC(F)(F)F)cc4)n3)cc2)N1c1c(F)cccc1Cl [Compound 95C] | 0 to 80% | 50 to 100% | 50 to 100% | – | – | –
6 | COc1cc(C)c(/N=C(/N/N=C/c2ccc(-c3ncn(-c4ccc(OC(F)(F)F)cc4)n3)cc2)SCOC(=O)CNC(=O)OCc2ccccc2)c(C)c1 [Compound 28C] | – | – | – | 0 to 80% | 50 to 100% | 50 to 100%
7 | Cc1cccc(C)c1-n1c(-c2ccc(OC(F)(F)F)cc2)cs/c1=N\N=Cc1ccc(-c2ncn(-c3ccc(OC(F)(F)F)cc3)n2)cc1 [Compound 78C] | 0 to 80% | 50 to 100% | 50 to 100% | – | – | –
8 | COc1cc(C)c(/N=C(/N/N=C/c2ccc(-c3ncn(-c4ccc(OC(F)(F)F)cc4)n3)cc2)SCOC(=O)C2CCCO2)c(C)c1 (stereo not drawn) [Compound 44C] | 0% | 50 to 100% | 50 to 100% | – | – | –
9 | CCc1cccc(C)c1N1CCS/C1=N\N=C\c1ccc(-c2ncn(-c3ccc(OC(F)(F)F)cc3)n2)cc1 [Compound 136C] | 0% | 50 to 100% | 50 to 100% | – | – | –
10 | CCc1cccc(C)c1N1CCCS/C1=N\N=C\c1ccc(-c2ncn(-c3ccc(OC(F)(F)F)cc3)n2)cc1 [Compound 180C] | 0 to 80% | 50 to 100% | 50 to 100% | – | – | –
11 | CC(C)c1ccccc1N1/C(=N/N=C/c2ccc(-c3ncn(-c4ccc(OC(F)(F)F)cc4)n3)cc2)SCC1(O)c1ccccc1C(F)(F)F (stereo not drawn) [Compound 263C] | 0 to 80% | 50 to 100% | 50 to 100% | – | – | –
12 | CCc1ccccc1N1CCS/C1=N\N=C\c1ccc(-c2ncn(-c3ccc(OC(F)(F)F)cc3)n2)cc1 [Compound 133C] | 0 to 80% | 50 to 100% | 50 to 100% | – | – | –
13 | CCC(C)c1ccccc1N1CCS/C1=N\N=C\c1ccc(-c2ncn(-c3ccc(OC(F)(F)F)cc3)n2)cc1 (stereo not drawn) [Compound 135C] | 0% | 50 to 100% | 50 to 100% | – | – | –
14 | COc1ccc(C)cc1N1CCCS/C1=N\N=C\c1ccc(-c2ncn(-c3ccc(OC(F)(F)F)cc3)n2)cc1 [Compound 204C] | 0 to 80% | 50 to 100% | 50 to 100% | – | – | –
15 | Cc1cccc(C)c1/N=C(/N/N=C/c1ccc(-c2ncn(-c3ccc(OC(F)(F)F)cc3)n2)cc1)SCOC(=O)CNC(=O)OC(C)(C)C [Compound 30C] | 0 to 80% | 50 to 100% | 50 to 100% | – | – | –
16 | CC(C)c1ccccc1N1/C(=N/N=C/c2ccc(-c3ncn(-c4ccc(C(F)(F)F)cc4)n3)cc2)SCC1(C)O (stereo not drawn) [Compound 261C] | 0% | 50 to 100% | 50 to 100% | – | – | –
17 | O=C1CS/C(=N\N=C\c2ccc(-c3ncn(-c4ccc(OC(F)(F)F)cc4)n3)cc2)N1c1ccccc1-c1ccccc1 [Compound 96C] | 0 to 80% | 50 to 100% | 50 to 100% | – | – | –
18 | CCOCC(=O)OCS/C(=N\c1c(C)cc(OC)cc1C)N/N=C/c1ccc(-c2ncn(-c3ccc(OC(F)(F)F)cc3)n2)cc1 [Compound 29C] | 0 to 80% | 50 to 100% | 50 to 100% | – | – | –
19 | Cc1cccc(C)c1/N=C(/N/N=C/c1ccc(-c2ncn(-c3ccc(OC(F)(F)F)cc3)n2)cc1)SCOC(=O)CNC(=O)OCc1ccccc1 [Compound 23C] | – | – | – | 0% | 50 to 100% | 50 to 100%
20 | CC(C)c1cccc(F)c1N1/C(=N/N=C/c2ccc(-c3ncn(-c4ccc(OC(F)(F)F)cc4)n3)cc2)SCC1(C)O (stereo not drawn) [Compound 250C] | 0 to 80% | 50 to 100% | 50 to 100% | – | – | –
21 | Cc1cccc(C)c1/N=C(/N/N=C/c1ccc(-c2ncn(-c3ccc(OC(F)(F)F)cc3)n2)cc1)SCC(=O)NC[C@@H]1CCCNC1 [Compound 62C, (1Z,2E)-2-oxo-2-(((R)-piperidin-3-ylmethyl)amino)ethyl N-(2,6-dimethylphenyl)-2-(4-(1-(4-(trifluoromethoxy)phenyl)-1H-1,2,4-triazol-3-yl)benzylidene)hydrazinecarbimidothioate trifluoroacetic acid] | 0 to 80% | 50 to 100% | 50 to 100% | – | – | –
22 | CC(C)c1ccccc1N1CCCCS/C1=N\N=C\c1ccc(-c2ncn(-c3ccc(OC(F)(F)F)cc3)n2)cc1 [Compound 212C] | 0% | 50 to 100% | 50 to 100% | – | – | –
23 | Cc1cccc(C)c1N1CCCCS/C1=N\N=C\c1ccc(-c2ncn(-c3ccc(OC(F)(F)F)cc3)n2)cc1 [Compound 211C] | 0% | 50 to 100% | 50 to 100% | – | – | –
24 | CC(C)c1ccccc1N1CCS/C1=N\N=C\c1ccc(-c2ncn(-c3ccc(OC(F)(F)F)cc3)n2)cc1 [Compound 132C] | 0 to 80% | 50 to 100% | 50 to 100% | – | – | –
25 | Cc1cccc(C)c1-n1c(-c2cc(-c3ccc(Cl)cc3)no2)cs/c1=N\N=C\c1ccc(-c2ncn(-c3ccc(OC(F)(F)F)cc3)n2)cc1 [Compound 76C] | 0 to 80% | 50 to 100% | 50 to 100% | – | – | –
26 | CC(C)c1ccccc1N1C(=NN=Cc2ccc(-c3ncn(-c4ccc(OC(F)(F)F)cc4)n3)cc2)SCC1C (stereo in doubt) [Compound 155C, (Z)-3-(2-isopropylphenyl)-4-methyl-2-((E)-(4-(1-(4-(trifluoromethoxy)phenyl)-1H-1,2,4-triazol-3-yl)benzylidene)hydrazono)thiazolidine] | 0% | 50 to 100% | 50 to 100% | – | – | –
27 | CC(C)Cc1ccccc1N1CCCS/C1=N\N=C\c1ccc(-c2ncn(-c3ccc(OC(F)(F)F)cc3)n2)cc1 [Compound 193C] | 0 to 80% | 50 to 100% | 50 to 100% | – | – | –
28 | O=C1CS/C(=N\N=C\c2ccc(-c3ncn(-c4ccc(OC(F)(F)F)cc4)n3)cc2)N1c1ccccc1C1CC1 [Compound 112C] | 0 to 80% | 50 to 100% | 50 to 100% | – | – | –
29 | Cc1cccc(C)c1/N=C(/N/N=C/c1ccc(-c2ncn(-c3ccc(OC(F)(F)F)cc3)n2)cc1)SCc1ccc(S(N)(=O)=O)cc1 [Compound 13C] | 0 to 80% | 50 to 100% | 50 to 100% | – | – | –

From US8916183B2, “Pesticidal compositions and processes related thereto” (priority 2012, dated 2014)
